Laboratory results reported in ChEMBL document CHEMBL3046164, “A facile synthesis of some 3-cyano-1,4,6-trisubstituted-2(1H)-pyridinones and their biological evaluation as anticancer agents” (2011).
“And” between values parts separate entries of the source, which are not always exact repeats. Equal values may be shown once.

Experiments:
Format in all cases: functional
[1] = tested on: UO-31; experiment: Growth inhibition of Homo sapiens (human) UO31 cells at 10 uM after 48 hr by SRB assay; settings: UO-31, 48 h, read-out: GI
[2] = tested on: HOP-92; experiment: Growth inhibition of Homo sapiens (human) HOP92 cells at 10 uM after 48 hr by SRB assay; settings: HOP-92, 48 h, read-out: GI
[3] = tested on: K562; experiment: Growth inhibition of Homo sapiens (human) K562 cells at 10 uM after 48 hr by SRB assay; settings: K562, 48 h, read-out: GI
[4] = tested on: NCI-H23; experiment: Growth inhibition of Homo sapiens (human) NCI-H23 cells at 10 uM after 48 hr by SRB assay; settings: NCI-H23, 48 h, read-out: GI
[5] = tested on: BT-549; experiment: Growth inhibition of Homo sapiens (human) BT549 cells at 10 uM after 48 hr by SRB assay; settings: BT-549, 48 h, read-out: GI
[6] = tested on: SR; experiment: Growth inhibition of Homo sapiens (human) SR cells at 10 uM after 48 hr by SRB assay; settings: read-out: GI
[7] = tested on: UO-31; experiment: Cytotoxicity against Homo sapiens (human) UO31 cells after 48 hr by SRB assay; settings: UO-31, 48 h
[8] = tested on: MDA-MB-231; experiment: Cytotoxicity against Homo sapiens (human) MDA-MB-231 cells after 48 hr by SRB assay; settings: MDA-MB-231, 48 h
[9] = tested on: SNB-75; experiment: Cytotoxicity against Homo sapiens (human) SNB75 cells after 48 hr by SRB assay; settings: SNB-75, 48 h
[10] = tested on: PC-3; experiment: Growth inhibition of Homo sapiens (human) PC3 cells at 10 uM after 48 hr by SRB assay; settings: PC-3, 48 h, read-out: GI
[11] = tested on: SR; experiment: Cytotoxicity against Homo sapiens (human) SR cells after 48 hr by SRB assay
[12] = tested on: SF-539; experiment: Cytotoxicity against Homo sapiens (human) SF539 cells after 48 hr by SRB assay; settings: SF-539, 48 h
[13] = tested on: OVCAR-3; experiment: Cytotoxicity against Homo sapiens (human) OVCAR3 cells after 48 hr by SRB assay; settings: OVCAR-3, 48 h
[14] = tested on: HOP-92; experiment: Cytotoxicity against Homo sapiens (human) HOP92 cells after 48 hr by SRB assay; settings: HOP-92, 48 h
[15] = tested on: T47D; experiment: Growth inhibition of Homo sapiens (human) T47D cells at 10 uM after 48 hr by SRB assay; settings: read-out: GI
[16] = tested on: CCRF-CEM; experiment: Growth inhibition of Homo sapiens (human) CCRF-CEM cells at 10 uM after 48 hr by SRB assay; settings: read-out: GI
[17] = tested on: OVCAR-4; experiment: Cytotoxicity against Homo sapiens (human) OVCAR4 cells after 48 hr by SRB assay; settings: OVCAR-4, 48 h
[18] = tested on: MCF7; experiment: Growth inhibition of Homo sapiens (human) MCF7 cells at 10 uM after 48 hr by SRB assay; settings: MCF7, 48 h, read-out: GI
[19] = tested on: HOP-62; experiment: Cytotoxicity against Homo sapiens (human) HOP62 cells after 48 hr by SRB assay; settings: HOP-62, 48 h
[20] = tested on: RPMI-8226; experiment: Cytotoxicity against Homo sapiens (human) RPMI8226 cells after 48 hr by SRB assay
[21] = tested on: HCC 2998; experiment: Cytotoxicity against Homo sapiens (human) HCC2998 cells after 48 hr by SRB assay; settings: HCC 2998, 48 h
[22] = tested on: CCRF-CEM; experiment: Cytotoxicity against Homo sapiens (human) CCRF-CEM cells after 48 hr by SRB assay
[23] = tested on: HL-60(TB); experiment: Cytotoxicity against Homo sapiens (human) HL-60(TB) cells after 48 hr by SRB assay; settings: HL-60, 48 h
[24] = tested on: SNB-75; experiment: Growth inhibition of Homo sapiens (human) SNB75 cells at 10 uM after 48 hr by SRB assay; settings: SNB-75, 48 h, read-out: GI
[25] = tested on: SF-268; experiment: Cytotoxicity against Homo sapiens (human) SF268 cells after 48 hr by SRB assay; settings: SF-268, 48 h
[26] = tested on: T47D; experiment: Cytotoxicity against Homo sapiens (human) T47D cells after 48 hr by SRB assay
[27] = tested on: UACC-62; experiment: Cytotoxicity against Homo sapiens (human) UACC62 cells after 48 hr by SRB assay; settings: UACC-62, 48 h
[28] = tested on: A498; experiment: Cytotoxicity against Homo sapiens (human) A498 cells after 48 hr by SRB assay; settings: A498, 48 h
[29] = tested on: BT-549; experiment: Cytotoxicity against Homo sapiens (human) BT549 cells after 48 hr by SRB assay; settings: BT-549, 48 h
[30] = tested on: EKVX; experiment: Cytotoxicity against Homo sapiens (human) EKVX cells after 48 hr by SRB assay
[31] = tested on: IGROV-1; experiment: Cytotoxicity against Homo sapiens (human) IGROV1 cells after 48 hr by SRB assay; settings: IGROV-1, 48 h
[32] = tested on: RPMI-8226; experiment: Growth inhibition of Homo sapiens (human) RPMI8226 cells at 10 uM after 48 hr by SRB assay; settings: RPMI-8226, 48 h, read-out: GI
[33] = tested on: A498; experiment: Growth inhibition of Homo sapiens (human) A498 cells at 10 uM after 48 hr by SRB assay; settings: A498, 48 h, read-out: GI
[34] = tested on: MOLT-4; experiment: Growth inhibition of Homo sapiens (human) MOLT4 cells at 10 uM after 48 hr by SRB assay; settings: MOLT-4, 48 h, read-out: GI
[35] = tested on: HL-60(TB); experiment: Growth inhibition of Homo sapiens (human) HL-60(TB) cells at 10 uM after 48 hr by SRB assay; settings: HL-60, 48 h, read-out: GI

## COc1ccc(-c2cc(-c3cccs3)n(Cc3ccccc3)c(=O)c2C#N)cc1
[1]
  inhibition of growth at 10 µM: 23.5%
[2]
  inhibition of growth at 10 µM: 26.8%
[3]
  inhibition of growth at 10 µM: 50.4%
[4]
  inhibition of growth at 10 µM: 21%

## CC(=O)n1c(-c2ccc(Br)cc2)cc(-c2cccn2C)c(C#N)c1=O
[2]
  inhibition of growth at 10 µM: 24.6%

## COc1ccc(-c2cc(-c3cccn3C)c(C#N)c(=O)n2S(=O)(=O)c2ccccc2)cc1OC
[5]
  inhibition of growth at 10 µM: 21%
[2]
  inhibition of growth at 10 µM: 25.8%
[6]
  inhibition of growth at 10 µM: 31.4%

## COc1ccc(-c2cc(-c3cccn3C)c(C#N)c3nnc(C)n23)cc1OC
[7]
  GI50: > 100 µM
[8]
  GI50: > 100 µM
[9]
  GI50: 44.7 µM
[10]
  inhibition of growth at 10 µM: 23.8%
[11]
  GI50: > 100 µM
[12]
  GI50: > 100 µM
[13]
  GI50: > 100 µM
[14]
  GI50: > 100 µM
[15]
  inhibition of growth at 10 µM: 34.3%
[16]
  inhibition of growth at 10 µM: 39.2%
[17]
  GI50: > 100 µM
[18]
  inhibition of growth at 10 µM: 29%
[19]
  GI50: 37.1 µM
[20]
  GI50: 45.7 µM and 19 µM
[2]
  inhibition of growth at 10 µM: 48%
[21]
  GI50: > 100 µM
[22]
  GI50: > 100 µM
[23]
  GI50: > 100 µM
[24]
  inhibition of growth at 10 µM: 25.8%
[25]
  GI50: > 100 µM
[3]
  inhibition of growth at 10 µM: 41.5%
[26]
  GI50: > 100 µM
[27]
  GI50: 95.5 µM
[28]
  GI50: 25.7 µM
[29]
  GI50: > 100 µM
[30]
  GI50: 0.01 µM
  TGI: 0.03 µM
[31]
  GI50: > 100 µM

## COc1ccc(-c2cc(-c3cccs3)n3c(C)nnc3c2C#N)cc1
[2]
  inhibition of growth at 10 µM: 23.5%

## Cc1nnc2c(C#N)c(-c3cccn3C)cc(-c3ccc(Br)cc3)n12
[10]
  inhibition of growth at 10 µM: 24%
[32]
  inhibition of growth at 10 µM: 43.2%
[16]
  inhibition of growth at 10 µM: 66%
[2]
  inhibition of growth at 10 µM: 30%

## CCn1c(-c2ccc(OC)c(OC)c2)cc(-c2cccn2C)c(C#N)c1=O
[16]
  inhibition of growth at 10 µM: 43.7%
[2]
  inhibition of growth at 10 µM: 29%
[3]
  inhibition of growth at 10 µM: 63.5%
[33]
  inhibition of growth at 10 µM: 44%

## COc1ccc(-c2cc(-c3cccn3C)c(C#N)c(=O)n2N=O)cc1OC
[2]
  inhibition of growth at 10 µM: 26.8%
[3]
  inhibition of growth at 10 µM: 26.6%

## Cn1cccc1-c1cc(-c2ccc(Br)cc2)n(S(=O)(=O)c2ccccc2)c(=O)c1C#N
[34]
  inhibition of growth at 10 µM: 26.6%
[35]
  inhibition of growth at 10 µM: 59.7%
[16]
  inhibition of growth at 10 µM: 55.9%
[2]
  inhibition of growth at 10 µM: 26%
[3]
  inhibition of growth at 10 µM: 22.5%
[4]
  inhibition of growth at 10 µM: 22.2%

## COc1ccc(-c2cc(-c3cccn3C)c(C#N)c(=O)n2C=O)cc1OC
[34]
  inhibition of growth at 10 µM: 28.5%
[35]
  inhibition of growth at 10 µM: 57.1%
[16]
  inhibition of growth at 10 µM: 47.1%
[3]
  inhibition of growth at 10 µM: 21.4%

## COc1ccc(-c2cc(-c3cccs3)n(N=O)c(=O)c2C#N)cc1
[16]
  inhibition of growth at 10 µM: 42%
[2]
  inhibition of growth at 10 µM: 36.2%
[3]
  inhibition of growth at 10 µM: 65.8%

## Cn1cccc1-c1cc(-c2ccc(Br)cc2)n(Cc2ccccc2)c(=O)c1C#N
[10]
  inhibition of growth at 10 µM: 32.5%
[32]
  inhibition of growth at 10 µM: 38.2%
[16]
  inhibition of growth at 10 µM: 39.5%
[2]
  inhibition of growth at 10 µM: 44.7%
[3]
  inhibition of growth at 10 µM: 45.4%
